Reference: US6087358A (priority 1997, dated 2000)
Converted amounts (≈) assume the structure as drawn.

Assays:
[1] = test system: Mycobacterium bovis BCG (recombinant strain); assay: microbe, parasite or virus in culture; type: cell-based; settings: Mycobacterium tuberculosis variant bovis BCG, BCG, 144 h; 6 days 37° C.; read-out: MIC, column A, 3(S) compounds
[2] = test system: Mycobacterium bovis (rBCG-lux); assay: microbe, parasite or virus in culture; type: cell-based, Mycobacterium bovis bacille Calmette Guerin; settings: Mycobacterium tuberculosis variant bovis, 72 h; read-out: % of control, measured in RLUs

O=[N+]([O-])c1cn2c(n1)OC[C@@H](OCc1ccc(OC(F)(F)F)cc1)C2 [PA-824, 3S 4-(Trifluromethoxy)benzyloxy-6-nitro-2H-3,4-dihydro-[2-1b]imidazopyran] was tested, and the MIC [1] was 0.06 µg/mL (≈ 0.167 µM), the activity at 0.15 µg/mL [2] was 29.4% and the activity at 0.31 µg/mL [2] was 12.3%. The activity at 0.62 µg/mL [2] was 0.6%, the activity at 1.25 µg/mL [2] was 0.3% and the activity at 2.5 µg/mL [2] was 0.2%. The activity at 5 µg/mL [2] was 0.1%.
